Source: patent publication US20230167073A1 (Teijin Pharma Limited, priority 2020, published 2023)

These molecules were tested against T1, Human TRPC6 (Homo sapiens, UniProt Q9Y210) (assay: Evaluation of TRPC6 channel inhibitory activity (1), FLIPR Calcium 5 Assay Kit, OAG stimulation (Compound Nos. 1-1293)). Settings: Human TRPC6 stably-expressing cells, OAG 30 μM, FLIPR Calcium 5 Assay Kit; read-out: Inhibitory activity (pIC50 class) (converted).
T1 construct: expressed in transfected cells
T1 sequence (Q9Y210 1-931): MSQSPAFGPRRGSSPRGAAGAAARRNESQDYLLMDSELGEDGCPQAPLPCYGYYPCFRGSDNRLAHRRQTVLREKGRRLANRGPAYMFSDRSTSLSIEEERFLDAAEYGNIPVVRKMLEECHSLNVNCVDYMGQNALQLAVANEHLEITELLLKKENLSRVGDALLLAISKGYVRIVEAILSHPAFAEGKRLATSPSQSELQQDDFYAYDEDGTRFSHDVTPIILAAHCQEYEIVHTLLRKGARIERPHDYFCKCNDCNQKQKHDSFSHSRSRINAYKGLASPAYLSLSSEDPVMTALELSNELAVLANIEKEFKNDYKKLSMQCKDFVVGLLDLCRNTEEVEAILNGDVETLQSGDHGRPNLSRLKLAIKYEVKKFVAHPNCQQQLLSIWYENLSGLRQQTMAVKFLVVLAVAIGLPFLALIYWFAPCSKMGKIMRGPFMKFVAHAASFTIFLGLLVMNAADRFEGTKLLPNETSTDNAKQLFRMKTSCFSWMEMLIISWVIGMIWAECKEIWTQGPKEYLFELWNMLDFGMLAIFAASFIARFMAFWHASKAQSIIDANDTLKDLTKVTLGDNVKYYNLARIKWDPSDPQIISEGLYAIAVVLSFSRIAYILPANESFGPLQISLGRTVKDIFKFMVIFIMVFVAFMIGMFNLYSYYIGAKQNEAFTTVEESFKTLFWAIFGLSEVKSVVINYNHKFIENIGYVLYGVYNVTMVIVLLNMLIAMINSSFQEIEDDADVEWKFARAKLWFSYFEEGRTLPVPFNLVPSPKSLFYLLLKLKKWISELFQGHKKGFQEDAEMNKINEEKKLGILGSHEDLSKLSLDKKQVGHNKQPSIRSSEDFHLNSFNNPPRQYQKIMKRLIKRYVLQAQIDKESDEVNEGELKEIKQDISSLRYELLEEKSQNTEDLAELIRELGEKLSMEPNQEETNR
Assay type: cell-based
Outline: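 Calcium influx read by FLIPR fluorescence in cells stably expressing human TRPC6, dye-loaded 30 min. Compounds preincubated 20 min, then OAG stimulation at 30 μM final. Inhibition fitted by four-parameter logistic regression to give pIC50, reported as +/++/+++ categories.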
Work on `Cn1nc(N2CC(F)(F)C(F)(F)C2)cc1Oc1cc(C#N)ccc1-c1ncc(CCN)cn1` [compound 877, 4-[5-(2-aminoethyl)pyrimidin-2-yl]-3-[2-methyl-5-(3,3,4,4-tetrafluoropyrrolidin-1-yl)pyrazol-3-yl]oxybenzonitrile] yielded an IC50 of under 0.01 µM. Work on `Cc1cc(Oc2cc(C#N)ccc2-c2ccc(C(O)CN)cc2)cc(N2CCOCC2)n1` (stereo not shown) [Compound 197, 4-[4-(2-amino-1-hydroxyethyl)phenyl]-3-(2-methyl-6-morpholin-4-ylpyridin-4-yl)oxybenzonitrile] yielded an IC50 of under 0.01 µM. With `Cc1nc(Oc2cc(C#N)ccc2-n2cc(CC(N)C(=O)O)c3ccccc32)cc(-c2ccccc2)n1` (stereo not shown) [compound 449, 2-amino-3-[1-[4-cyano-2-(2-methyl-6-phenylpyrimidin-4-yl)oxyphenyl]indol-3-yl]propanoic acid] the IC50 was over 1 µM. `N#Cc1ccc(-c2ccc(CCN)cc2)c(Cn2cnc(-n3cnnn3)c2)c1` [compound 1123, 4-[4-(2-aminoethyl)phenyl]-3-[[4-(tetrazol-1-yl)imidazol-1-yl]methyl]benzonitrile] was tested, and the IC50 was over 1 µM. `Cc1nc(Oc2cc(C#N)ccc2-n2cc([C@@H](O)CN)cn2)cc(N2CCC(F)(F)CC2)n1` [Compound 256, 4-[4-[(1R)-2-amino-1-hydroxyethyl]pyrazol-1-yl]-3-[6-(4,4-difluoropiperidin-1-yl)-2-methylpyrimidin-4-yl]oxybenzonitrile] showed an IC50 of 0.01 to 1 µM. `CC(C)COc1cc(Oc2cc(C#N)ccc2-c2ncc(CN)cn2)cnn1` [compound 819, 4-[5-(aminomethyl)pyrimidin-2-yl]-3-[6-(2-methylpropoxy)pyridazin-4-yl]oxybenzonitrile] showed an IC50 of 0.01 to 1 µM. With `CC(C)n1nc(C2CC2)cc1Oc1cc(C#N)ccc1-c1ccc([C@H](O)CN)cn1` [compound 407, 4-[5-[(1S)-2-amino-1-hydroxyethyl]pyridin-2-yl]-3-(5-cyclopropyl-2-propan-2-ylpyrazol-3-yl)oxybenzonitrile] the IC50 was under 0.01 µM. `Cn1nc(-c2ccccc2)cc1Oc1nc(Cl)ccc1-c1ccc(CCN)cn1` [compound 1292, 2-[6-[6-chloro-2-(2-methyl-5-phenylpyrazol-3-yl)oxypyridin-3-yl]pyridin-3-yl]ethanamine] gave an IC50 of 0.01 to 1 µM. In the case of `N#Cc1ccc(-c2ccc(CCN)cc2)c(Oc2cc(N3CCOCC3)nc(C(F)(F)F)n2)c1` [Compound 113, 4-[4-(2-aminoethyl)phenyl]-3-[6-morpholin-4-yl-2-(trifluoromethyl)pyrimidin-4-yl]oxybenzonitrile], the IC50 is reported as under 0.01 µM. Work on `Cc1nc(Oc2cc(F)ccc2-c2ccc(CN)cn2)cc(N2CCOCC2)n1` [compound 1003, [6-[4-fluoro-2-(2-methyl-6-morpholin-4-ylpyrimidin-4-yl)oxyphenyl]pyridin-3-yl]methanamine] yielded an IC50 of 0.01 to 1 µM. With `Cc1cc(Oc2cc(C#N)ccc2-c2ccc([C@H](O)CN)cn2)cc(N2C[C@@H](C)O[C@@H](C)C2)n1` [compound 505, 4-[5-[(1S)-2-amino-1-hydroxyethyl]pyridin-2-yl]-3-[2-[(2S,6R)-2,6-dimethylmorpholin-4-yl]-6-methylpyridin-4-yl]oxybenzonitrile] the IC50 was under 0.01 µM. With `CCc1cc(Oc2cc(C#N)ccc2-c2ncc(CCN)cn2)n(C)n1` [Compound 293, 4-[5-(2-aminoethyl)pyrimidin-2-yl]-3-(5-ethyl-2-methylpyrazol-3-yl)oxybenzonitrile] the IC50 was under 0.01 µM. `Cn1nc(C2CC2)cc1Oc1cc(C#N)ccc1-c1cccc(CCN)n1` [compound 481, 4-[6-(2-aminoethyl)pyridin-2-yl]-3-(5-cyclopropyl-2-methylpyrazol-3-yl)oxybenzonitrile] showed an IC50 of over 1 µM. For `Cc1nc(Oc2cc(C#N)ccc2-c2ccc([C@H](O)CN)cn2)cc(N2CCCCC2)n1` [compound 509, 4-[5-[(1S)-2-amino-1-hydroxyethyl]pyridin-2-yl]-3-(2-methyl-6-piperidin-1-ylpyrimidin-4-yl)oxybenzonitrile], the IC50 was under 0.01 µM. In the case of `Cc1nc(Oc2cc(C#N)ccc2-c2ccc(CCN)cn2)cc(N2CCOCC2)n1` [Compound 85, 4-[5-(2-aminoethyl)pyridin-2-yl]-3-(2-methyl-6-morpholin-4-ylpyrimidin-4-yl)oxybenzonitrile], the IC50 is reported as 0.01 to 1 µM. Work on `N#Cc1ccc(-c2ccc(CCN)cn2)c(C(=O)c2cnc(N3CCOCC3)o2)c1` [compound 1083, 4-[5-(2-aminoethyl)pyridin-2-yl]-3-(2-morpholin-4-yl-1,3-oxazole-5-carbonyl)benzonitrile] yielded an IC50 of 0.01 to 1 µM. `Cc1cc(Oc2cc(C#N)ccc2-c2ccc(CN)n3ccnc23)cc(N2CCOCC2)n1` [compound 494, 4-[5-(aminomethyl)imidazo[1,2-a]pyridin-8-yl]-3-(2-methyl-6-morpholin-4-ylpyridin-4-yl)oxybenzonitrile] was tested, and the IC50 was 0.01 to 1 µM. With `Cc1cc(Oc2cc(C#N)ccc2-c2ccc(CCN)cn2)cc(-c2ccccn2)n1` [Compound 258, 4-[5-(2-aminoethyl)pyridin-2-yl]-3-(2-methyl-6-pyridin-2-ylpyridin-4-yl)oxybenzonitrile] the IC50 was under 0.01 µM. In the case of `Cn1nc(N2CCOCC2)cc1C(=O)c1cc(F)ccc1-c1ncc(CN)cn1` [compound 1105, [2-[5-(aminomethyl)pyrimidin-2-yl]-5-fluorophenyl]-(2-methyl-5-morpholin-4-ylpyrazol-3-yl)methanone], the IC50 is reported as 0.01 to 1 µM. Work on `CC(C)Cc1cc(Oc2cc(C#N)ccc2-c2ccc(CCN)cn2)n(C)n1` [Compound 228, 4-[5-(2-aminoethyl)pyridin-2-yl]-3-[2-methyl-5-(2-methylpropyl)pyrazol-3-yl]oxybenzonitrile] yielded an IC50 of under 0.01 µM. Work on `NCCc1cnc(-c2ccc(F)cc2Cc2cnn(-c3ccccn3)c2)nc1` [compound 1220, 2-[2-[4-fluoro-2-[(1-pyridin-2-ylpyrazol-4-yl)methyl]phenyl]pyrimidin-5-yl]ethanamine] yielded an IC50 of over 1 µM. In the case of `Cn1nc(N2CCCCC2)cc1Oc1cc(C#N)ccc1-c1ccc([C@H](O)CN)cn1` [compound 544, 4-[5-[(1S)-2-amino-1-hydroxyethyl]pyridin-2-yl]-3-(2-methyl-5-pipeddin-1-ylpyrazol-3-yl)oxybenzonitrile], the IC50 is reported as under 0.01 µM. With `Cn1nc(C2CC2)cc1Oc1cc(C#N)ccc1-c1ccc(CN2CCNCC2=O)cn1` [compound 778, 3-(5-cyclopropyl-2-methylpyrazol-3-yl)oxy-4-[5-[(2-oxopiperazin-1-yl)methyl]pyridin-2-yl]benzonitrile] the IC50 was over 1 µM. For `Cn1nc(C2CC2)cc1Oc1cc(C#N)ccc1-c1ccc(CN)n2ccnc12` [compound 493, 4-[5-(aminomethyl)imidazo[1,2-a]pyridin-8-yl]-3-(5-cyclopropyl-2-methylpyrazol-3-yl)oxybenzonitrile], the IC50 was under 0.01 µM. With `CC(C)Cc1nn(C)c(Oc2cc(C#N)ccc2-c2ccc(CCN)cc2)c1C(C)C` [Compound 243, 4-[4-(2-aminoethyl)phenyl]-3-[2-methyl-5-(2-methylpropyl)-4-propan-2-ylpyrazol-3-yl]oxybenzonitrile] the IC50 was over 1 µM. In the case of `N#Cc1ccc(-c2ccc(CCN)cn2)c(Oc2cnnc(N3CCOCC3)c2)c1` [Compound 89, 4-[5-(2-aminoethyl)pyridin-2-yl]-3-(6-morpholin-4-ylpyridazin-4-yl)oxybenzonitrile], the IC50 is reported as over 1 µM. With `COC(C)c1cn(Cc2cc(C#N)ccc2-c2ccc(CCN)cn2)c(C)n1` (stereo not shown) [compound 1140, 4-[5-(2-aminoethyl)pyridin-2-yl]-3-[[4-(1-methoxyethyl)-2-methylimidazol-1-yl]methyl]benzonitrile] the IC50 was 0.01 to 1 µM. Molecule `Cc1nc(C(F)(F)F)cn1Cc1cc(C#N)ccc1-c1ncc(CN)cn1` [compound 1174, 4-[5-(aminomethyl)pyrimidin-2-yl]-3-[[2-methyl-4-(trifluoromethyl)imidazol-1-yl]methyl]benzonitrile] has an IC50 of 0.01 to 1 µM. Work on `N#Cc1ccc(-c2ncc(CN)cn2)c(Oc2cnnc(N3CCCCC3)c2)c1` [compound 715, 4-[5-(aminomethyl)pyrimidin-2-yl]-3-(6-piperidin-1-ylpyridazin-4-yl)oxybenzonitrile] yielded an IC50 of under 0.01 µM. Work on `Cc1nc(Oc2cc(C#N)ccc2-c2ncc(CCN)cn2)cc(N2C=NCCC2)n1` [compound 881, 4-[5-(2-aminoethyl)pyrimidin-2-yl]-3-[6-(5,6-dihydro-4H-pyrimidin-1-yl)-2-methylpyrimidin-4-yl]oxybenzonitrile] yielded an IC50 of over 1 µM. `N#Cc1ccc(-c2ccc(CCN)cn2)c(Cn2cnc(-c3ccc(F)cc3)c2)c1` [compound 1147, 4-[5-(2-aminoethyl)pyridin-2-yl]-3-[[4-(4-fluorophenyl)imidazol-1-yl]methyl]benzonitrile] gave an IC50 of under 0.01 µM.
